From patent US20060292254A1, “Orally and nasally administered appetite suppressant” (priority 2005, published 2006)

System: food intake in food deprived rats
Assay: Effect of intranasal administration of capsaicin on food intake in food deprived rats
Type: in vivo, Male Sprague-Dawley rats
Conditions: intra-nasal liquid solution, 0.02-2 mg/kg of body weight, food introduced one hour after administration, consumption determined after 4, 12 and 24 hours, mush diet
From the text: Male Sprague-Dawley rats, 150-175 g at the start of the experiments (Charles River Laboratories, Wilmington, Mass.) were housed individually in suspended wire mesh cages. Rats had ad libitum access to tap water and food (Rodent Laboratory Chow No. 5001-pellet form, Purina) on non-testing days. A mush diet, used for experiments on food-deprived animals, and composed of equal parts by weight of ground rodent chow (Purina, #5001-meal form) and a 4% nutrient agar solution (Teklad Diets) was presented to the animals in glass jars. This agar-based chow diet allows for a more accurate measurement of food intake, and has been shown previously to be sufficient for maintaining normal rat growth.
Capsaicin was prepared as a liquid solution and administered intra-nasally, The drug dosage ranged from 0.02-2 mg/kg of body weight. Control animals were administered placebo formulation without capsaicin. One hour after administration, pre-weighed food jars were introduced into the cage and a sheet of clean white paper placed under each cage to catch any spillage. The amount of food consumed after 4, 12 and 24 hours was determined to the nearest 0.01 g.

COc1cc(CNC(=O)CCCC/C=C/C(C)C)ccc1O [Capsaicin]
amount of food consumed versus placebo: significantly less food
